Format in all cases: biochemical
For test [1], the target named is T1, JAK1 (Homo sapiens, UniProt P23458).
T1 construct: made in house; host or cells: SF9 insect cells (baculovirus)
Nature of the test: JAK1 inhibition (Table 4). The settings on record: read-out: JAK1 Ki.

For test [2], the target named is T2, JAK2 (Homo sapiens, UniProt O60674).
T2 construct: made in house; host or cells: SF9 insect cells (baculovirus)
As to the kind of experiment: JAK2 inhibition (Table 4). The conditions noted are these: read-out: JAK2 Ki.

Test [3] concerns the target T3, JAK3 (Homo sapiens, UniProt P52333).
T3 construct: made in house; host or cells: SF9 insect cells (baculovirus)
As to the kind of experiment: JAK3 inhibition (Table 4). The conditions noted are these: read-out: JAK3 Ki.

Test [4] deals with T4, TYK2 (Homo sapiens, UniProt P29597).
T4 construct: made in house; host or cells: SF9 insect cells (baculovirus)
T4 sequence (P29597 873-1187): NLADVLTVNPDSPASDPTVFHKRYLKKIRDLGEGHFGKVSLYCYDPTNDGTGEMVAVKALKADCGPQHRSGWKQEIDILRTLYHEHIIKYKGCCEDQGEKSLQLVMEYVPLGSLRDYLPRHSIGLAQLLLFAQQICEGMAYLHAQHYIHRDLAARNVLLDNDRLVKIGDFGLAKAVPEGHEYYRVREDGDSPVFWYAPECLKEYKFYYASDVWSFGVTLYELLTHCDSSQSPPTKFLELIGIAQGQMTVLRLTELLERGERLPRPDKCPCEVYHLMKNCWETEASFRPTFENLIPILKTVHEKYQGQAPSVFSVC
As to the kind of experiment: TYK2 inhibition (Table 4).

Each structure is given as a SMILES string. Where a name gives a salt, the structure may show the parent alone.

Broadly, the Ki is the dissociation constant of the complex between target and ligand, obtained from inhibition or displacement.

T1 sequence (P23458 852-1154): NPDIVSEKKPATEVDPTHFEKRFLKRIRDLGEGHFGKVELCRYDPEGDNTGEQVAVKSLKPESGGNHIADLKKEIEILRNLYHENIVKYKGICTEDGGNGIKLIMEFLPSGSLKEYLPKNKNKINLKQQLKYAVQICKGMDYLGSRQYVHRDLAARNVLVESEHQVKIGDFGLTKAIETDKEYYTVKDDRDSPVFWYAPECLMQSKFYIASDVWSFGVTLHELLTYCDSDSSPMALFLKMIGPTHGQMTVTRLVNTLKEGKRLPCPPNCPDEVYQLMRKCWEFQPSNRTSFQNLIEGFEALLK
T3 sequence (P52333 783-1124): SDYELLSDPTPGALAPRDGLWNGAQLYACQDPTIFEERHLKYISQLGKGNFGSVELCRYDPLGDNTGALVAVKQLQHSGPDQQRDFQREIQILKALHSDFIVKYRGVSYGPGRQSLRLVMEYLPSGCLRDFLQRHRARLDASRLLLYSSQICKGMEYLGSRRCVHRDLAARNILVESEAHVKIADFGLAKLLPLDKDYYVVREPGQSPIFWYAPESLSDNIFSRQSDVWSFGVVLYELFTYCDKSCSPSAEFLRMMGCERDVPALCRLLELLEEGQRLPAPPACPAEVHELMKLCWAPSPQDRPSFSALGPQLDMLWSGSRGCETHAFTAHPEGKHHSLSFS
T2 sequence (O60674 812-1132): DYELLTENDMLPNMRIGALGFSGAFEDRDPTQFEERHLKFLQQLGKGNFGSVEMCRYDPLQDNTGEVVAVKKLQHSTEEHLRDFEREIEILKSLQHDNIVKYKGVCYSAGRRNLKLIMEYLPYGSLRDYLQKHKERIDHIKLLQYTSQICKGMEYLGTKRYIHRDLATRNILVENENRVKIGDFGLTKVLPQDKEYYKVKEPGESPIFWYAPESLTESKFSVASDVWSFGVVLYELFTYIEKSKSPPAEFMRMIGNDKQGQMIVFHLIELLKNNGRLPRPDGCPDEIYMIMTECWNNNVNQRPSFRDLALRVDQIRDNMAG

For the molecule `N#Cc1ccccc1CN1CCC[C@@H](n2cnc3cnc4[nH]ccc4c32)C1` [Example 41, 2-[(R)-3-(6H-1,3,5,6-Tetraaza-as-indacen-1-yl)-piperidin-1-ylmethyl]benzonitrile], the Ki in test [1] worked out at 34.4 nM; in test [2] it was 48.9 nM; in test [3] it was 153 nM; in test [4] it was 159 nM.

As to `N#Cc1ccc(S(=O)(=O)N2CCC[C@@H](n3cnc4cnc5[nH]ccc5c43)C2)cc1` [Example 360, 4-[(R)-3-(6H-1,3,5,6-Tetraaza-as-indacen-1-yl)-piperidine-1-sulfonyl]-benzonitrile], the Ki in test [1] came out at 8.43 nM; in test [2], 8.12 nM; in test [3] it was 37.2 nM; in test [4], 40.8 nM.

As for `CCCC1(n2c(C)nc3cnc4[nH]ccc4c32)CC1` [Example 423, 2-Methyl-1-(1-propyl-cyclopropyl)-1,6-dihydro-1,3,5,6-tetraaza-as-indacene], the Ki worked out at 9.88 nM in test [1], 14.1 nM in test [2], 9.67 nM in test [3] and 112 nM in test [4].

For `N#CCCN1CCC(n2c(COCC3CCOC3)nc3cnc4[nH]ccc4c32)CC1` (stereo not shown) [Example 836, 3-{4-[2-(Tetrahydro-furan-3-ylmethoxymethyl)-6H-1,3,5,6-tetraaza-as-indacen-1-yl]-piperidin-1-yl}-propionitrile], the Ki turned out to be 38.6 nM in test [1], 89 nM in test [2], 95.1 nM in test [3] and 384 nM in test [4].

With `NC(=O)Cc1nc2cnc3[nH]ccc3c2n1C1CCN(S(=O)(=O)C2CC2)CC1` [Example 382, 2-[1-(1-Cyclopropanesulfonyl-piperidin-4-yl)-1,6-dihydro-1,3,5,6-tetraaza-as-indacen-2-yl]-acetamide], the Ki in test [1] is 134 nM; in test [2], 589 nM; in test [3] it was 538 nM; in test [4], 733 nM.

In the case of `Cc1nc2cnc3[nH]ccc3c2n1[C@@H]1CC[C@@H](NC(C)CC#N)C1` (stereo partly drawn) [Example 725, 3-[(1R,3R)-3-(2-Methyl-6H-1,3,5,6-tetraaza-as-indacen-1-yl)-cyclopentylamino]-butyronitrile], the Ki in test [1] is 22.1 nM; in test [2], 49.5 nM; in test [3], 32.5 nM; in test [4], 211 nM.

With `CN(CCO)C(=O)Cc1nc2cnc3[nH]ccc3c2n1C1CCCOC1` (racemic) [Example 969, N-(2-Hydroxy-ethyl)-N-methyl-2-[1-(tetrahydro-pyran-3-yl)-1,6-dihydro-1,3,5,6-tetraaza-as-indacen-2-yl]-acetamide], the Ki in test [1] is 171 nM; in test [2], 1090 nM; in test [3] it was 511 nM; in test [4], 1140 nM.

Take `O=C1CC(n2cnc3cnc4[nH]ccc4c32)CCN1` (racemic) [Example 133, 4-(6H-1,2,3,5,6-Tetraaza-as-indacen-1-yl)-piperidin-2-one]: the Ki in test [1] amounted to 54.2 nM; in test [2], 150 nM; in test [3], 297 nM; in test [4], 798 nM.

As for `CC1CN(Cc2ccccc2)CCC1n1cnc2cnc3[nH]ccc3c21` (racemic) [Example 150, Racemic trans 1-(1-Benzyl-3-methyl-piperidin-4-yl)-1,6-dihydro-1,2,3,5,6-tetraaza-as-indacene dihydrochloride], the Ki in test [1] amounted to 4.17 nM; in test [2], 11.9 nM; in test [3], 17.7 nM; in test [4] it was 292 nM.

`OC1CCCC(n2cnc3cnc4[nH]ccc4c32)C1` (single isomer, unassigned) [Example 562, 3-(6H-1,3,5,6-Tetraaza-as-indacen-1-yl)-cyclohexanol]: the Ki in test [1] was 4.58 nM; in test [2], 7.55 nM; in test [3] it was 5.89 nM; in test [4] it was 12 nM.

In the case of `CC(CC#N)N1CCC(n2c(C3CCOC3)nc3cnc4[nH]ccc4c32)CC1` (racemic) [Example 391, 3-{4-[2-(Tetrahydro-furan-3-yl)-6H-1,3,5,6-tetraaza-as-indacen-1-yl]-piperidin-1-yl}-butyronitrile], the Ki amounted to 7.53 nM in test [1], 27.1 nM in test [2], 35.8 nM in test [3] and 91.9 nM in test [4].

For the molecule `OC1CCCC(n2nnc3cnc4[nH]ccc4c32)C1` (single isomer, unassigned) [Example 554, 3-(6H-1,2,3,5,6-Pentaaza-as-indacen-1-yl)-cyclohexanol], the Ki in test [1] was 13.3 nM; in test [2], 31.6 nM; in test [3], 77.3 nM; in test [4], 60.6 nM.

For `CN(C)C(=O)N[C@H]1CC[C@H](n2cnc3cnc4[nH]ccc4c32)CC1` [Example 603, Trans 1,1-dimethyl-3-[4-(6H-1,2,3,5,6-tetraaza-as-indacen-1-yl)-cyclohexyl]-urea], the inhibitory constant (Ki) in test [1] was found to be 9.76 nM; in test [2], 20.8 nM; in test [3] it was 237 nM; in test [4] it was 87 nM.

`C[C@@H](O)c1nc2cnc3[nH]ccc3c2n1[C@H]1CC[C@@H](NCC(F)(F)F)C1` [Example 1004, (R)-1-{1-[(1S,3R)-3-(2,2,2-Trifluoro-ethylamino)-cyclopentyl]-1,6-dihydro-1,3,5,6-tetraaza-as-indacen-2-yl}-ethanol]: the Ki in test [1] is 1.69 nM; in test [2], 63 nM; in test [3] it was 44.4 nM; in test [4], 17 nM.

On to `NC1CCCC(n2cnc3cnc4[nH]ccc4c32)C1` (single isomer, unassigned) [Example 366, 3-(6H-1,3,5,6-Tetraaza-as-indacen-1-yl)-cyclohexylamine], for which the inhibition constant Ki in test [1] worked out at 45.9 nM; in test [2], 69.8 nM; in test [3] it was 381 nM; in test [4], 299 nM.

As for `Cc1nc2cnc3[nH]ccc3c2n1[C@@H]1CC[C@@H](NC2COC2)C1` [Example 625, [(1R,3R)-3-(2-Methyl-6H-1,2,3,5,6-tetraaza-as-indacen-1-yl)-cyclopentyl]-oxetan-3-yl-amine], the Ki in test [1] was found to be 33.9 nM; in test [2], 99.7 nM; in test [3] it was 169 nM; in test [4] it was 218 nM.

Regarding `NC(=O)Cc1nc2cnc3[nH]ccc3c2n1C1CCCOC1` (racemic) [Example 960, 2-[1-(Tetrahydro-pyran-3-yl)-1,6-dihydro-1,3,5,6-tetraaza-as-indacen-2-yl]-acetamide], the Ki in test [1] stood at 30.4 nM; in test [2], 208 nM; in test [3], 236 nM; in test [4] it was 224 nM.

Consider `CS(=O)(=O)NCCc1nc2cnc3[nH]ccc3c2n1[C@H]1CCCOC1` [Example 854, (S)—N-{2-[1-(Tetrahydro-pyran-3-yl)-1,6-dihydro-1,3,5,6-tetraaza-as-indacen-2-yl]-ethyl}-methanesulfonamide], for which the Ki in test [1] was 4.01 nM; in test [2], 77.1 nM; in test [3], 195 nM; in test [4], 138 nM.

As to `N#CCCN1CCC(n2c(C(F)F)nc3cnc4[nH]ccc4c32)CC1` [Example 308, 3-[4-(2-Difluoromethyl-6H-1,3,5,6-tetraaza-as-indacen-1-yl)-piperidin-1-yl]-propionitrile], the Ki in test [1] worked out at 1.5 nM; in test [2], 2.63 nM; in test [3], 6.04 nM; in test [4] it was 12.3 nM.

The record behind these values is patent US8461328B2, “Tricyclic heterocyclic compounds, compositions and methods of use thereof” (Genentech, Inc., priority 2010, dated 2013).
